This data set in a line: solubility in dilute aqueous hydrochloric acid. Type of data set: physicochemical. As to conditions: dilute or N/10 aqueous hydrochloric acid; hydrochloride formed.
Turning to `FC(F)(F)C(NC1=NCCO1)C1CC1` (racemic) [II, dl 2-[(1-trifluoromethyl 1-cyclopropyl)methylamino]oxazoline], the “solubility in hydrochloric acid solution” value is “easily soluble in an aqueous solution of the just calculated amount of N/10 hydrochloric acid”. With `CC(NC1=NCCO1)C(F)(F)F` (racemic) [I, dl 2-(α-trifluoromethylethylamino)oxazoline], the “solubility in hydrochloric acid solution” value is “soluble in the dilute aqueous solutions of hydrochloric acid”. As for `FC(F)(F)C(NC1=NCCO1)C1CCCCC1` (single isomer, unassigned) [IV, 2-[(1-trifluoromethyl 1-cyclohexyl)methylamino]oxazoline (dextrorotatory isomer)], the entry is “soluble in dilute hydrochloric acid”; as for `FC(F)(F)C(NC1=NCCCN1)C1CCCCC1` (single isomer, unassigned) [XI, 2-[(1-trifluoromethyl 1-cyclohexyl)methylamino]tetrahydropyrimidine (laevorotatory isomer)], “soluble in N/10 hydrochloric acid solutions”. Then `CC(C)CC(NC1=NCCO1)C(F)(F)F` (racemic) [III, dl 2-(1-trifluoromethyl 3-methylbutylamino)oxazoline], with “soluble in dilute hydrochloric acid”; and `FC(F)(F)C(F)(F)C(NC1=NCCO1)C1CCCCC1` (racemic) [X, dl 2-[(1-pentafluoroethyl 1-cyclohexyl)methylamino]oxazoline], with “soluble in N/10 hydrochloric acid solutions”.
